According to ChEMBL document CHEMBL1134818, “A designed antagonist of the thyroid hormone receptor” (Bioorg Med Chem Lett, 2001):

Legend:
[1] = target: T1, Thyroid hormone receptor beta (Homo sapiens, UniProt P10828); assay: Binding affinity towards thyroid hormone receptor (hTR beta 1)
T1 sequence (P10828 whole entry): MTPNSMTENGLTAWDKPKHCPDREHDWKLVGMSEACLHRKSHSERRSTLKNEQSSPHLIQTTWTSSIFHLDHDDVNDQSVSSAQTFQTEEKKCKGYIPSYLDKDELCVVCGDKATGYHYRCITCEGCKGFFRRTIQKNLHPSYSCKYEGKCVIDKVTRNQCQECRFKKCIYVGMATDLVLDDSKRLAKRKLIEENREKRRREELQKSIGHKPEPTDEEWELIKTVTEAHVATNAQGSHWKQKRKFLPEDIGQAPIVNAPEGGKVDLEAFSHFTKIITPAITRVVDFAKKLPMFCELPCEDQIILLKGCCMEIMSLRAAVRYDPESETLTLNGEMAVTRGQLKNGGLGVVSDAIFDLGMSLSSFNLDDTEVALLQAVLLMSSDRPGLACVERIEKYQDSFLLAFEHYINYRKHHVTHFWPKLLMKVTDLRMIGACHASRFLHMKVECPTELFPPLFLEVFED

[2] = target: T2, Thyroid hormone receptor alpha (Homo sapiens, UniProt P10827); assay: Binding affinity towards thyroid hormone receptor (hTR alpha 1)
T2 sequence (P10827 whole entry): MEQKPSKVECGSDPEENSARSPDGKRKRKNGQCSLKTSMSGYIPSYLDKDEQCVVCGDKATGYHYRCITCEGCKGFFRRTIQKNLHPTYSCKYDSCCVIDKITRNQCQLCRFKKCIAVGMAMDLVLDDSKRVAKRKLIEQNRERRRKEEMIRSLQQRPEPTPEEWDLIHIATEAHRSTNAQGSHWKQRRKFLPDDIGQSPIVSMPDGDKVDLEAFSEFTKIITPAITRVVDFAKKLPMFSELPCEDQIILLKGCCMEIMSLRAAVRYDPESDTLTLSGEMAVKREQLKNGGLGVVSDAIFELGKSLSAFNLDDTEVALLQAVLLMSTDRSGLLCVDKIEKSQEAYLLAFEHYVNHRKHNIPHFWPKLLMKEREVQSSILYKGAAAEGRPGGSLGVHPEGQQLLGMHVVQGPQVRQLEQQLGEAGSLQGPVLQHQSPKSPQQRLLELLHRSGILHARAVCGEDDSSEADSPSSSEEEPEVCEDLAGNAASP

## COc1ccc(C(c2ccc(O)c(C(C)C)c2)c2c(C)cc(OCC(=O)O)cc2C)c(OC)c1 (stereo not given)
[1]
  Kd: 4200 nM
[2]
  Kd: 1400 nM

## C=CCC(c1ccc(O)c(C(C)C)c1)c1c(C)cc(OCC(=O)O)cc1C (stereo not given)
[1]
  Kd: 90 nM
[2]
  Kd: 430 nM

## CCCCN(C)C(=O)CCCCCCCCCCC(c1ccc(O)c(C(C)C)c1)c1c(C)cc(OCC(=O)O)cc1C (stereo not given)
[1]
  Kd: 148 nM
[2]
  Kd: 112 nM

## CCCCN(C)C(=O)CCCCCC/C=C\CCC(c1ccc(O)c(C(C)C)c1)c1c(C)cc(OCC(=O)O)cc1C (stereo not given)
[1]
  Kd: 720 nM
[2]
  Kd: 240 nM

## Cc1cc(OCC(=O)O)cc(C)c1C(CCCO)c1ccc(O)c(C(C)C)c1 (stereo not given)
[1]
  Kd: 3600 nM
[2]
  Kd: 1400 nM
